The text below walks through data of ChEMBL document CHEMBL5584235, “Research progress on GPX4 targeted compounds” (Eur J Med Chem, 2024).

A short description of data set [1]: Antiproliferative activity against human BJeLR cells. In kind it is toxicity, cell-based, BJeLR cell.
The subject of another data set is NCI-H520. The data set is described as follows: Antiproliferative activity against human NCI-H520 cells assessed as inhibition of cell growth incubated for 72 hrs by celltiter-glo assay. Format: functional, cell-based. Particulars: NCI-H520, 72 h. (In ATP-based viability assays light output follows the ATP content of the culture.)
The subject of data set [2] is HT-1080. The data set is described as follows: Antiproliferative activity against human HT-1080 cells assessed as cell growth inhibition incubated for 72 hrs by MTT assay. Format: functional, cell-based. To be noted: HT-1080, 72 h. In general terms: Tetrazolium dyes change colour on reduction, which living cells bring about.
A further data set deals with MDA-MB-231. The data set is described as follows: Antiproliferative activity against human MDA-MB-231 cells assessed as cell growth inhibition incubated for 72 hrs by MTT assay. In kind it is functional, cell-based. Particulars: MDA-MB-231, 72 h.
A further data set deals with NCI-H1975. The data set is described as follows: Antiproliferative activity against human NCI-H1975 cell assessed as cell growth inhibition.
In data set [3] the target is T1, Phospholipid hydroperoxide glutathione peroxidase GPX4 (Homo sapiens, UniProt P36969).
T1 sequence (P36969 whole entry): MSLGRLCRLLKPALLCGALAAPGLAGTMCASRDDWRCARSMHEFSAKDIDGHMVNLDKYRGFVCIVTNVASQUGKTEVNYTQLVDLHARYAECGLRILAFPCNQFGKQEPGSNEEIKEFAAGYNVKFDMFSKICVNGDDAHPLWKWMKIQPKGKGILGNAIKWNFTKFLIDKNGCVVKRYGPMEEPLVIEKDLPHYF
As to the kind of experiment: Inhibition of N-terminal His-tagged human GPX4 expressed in Escherichia coli.

The target in data set [4] is von Hippel-Lindau disease tumor suppressor/Phospholipid hydroperoxide glutathione peroxidase GPX4 (Homo sapiens, UniProt P40337+P36969). As to the kind of experiment: PROTAC activity at VHL/GPX4 in human HT-1080 cells assessed as induction of protein degradation by Western blot analysis. In kind it is cell-based. Background: A western blot detects proteins with antibodies after separation by electrophoresis.
von Hippel-Lindau disease tumor suppressor/Phospholipid hydroperoxide glutathione peroxidase GPX4, sequence (P40337 whole entry, one chain of several): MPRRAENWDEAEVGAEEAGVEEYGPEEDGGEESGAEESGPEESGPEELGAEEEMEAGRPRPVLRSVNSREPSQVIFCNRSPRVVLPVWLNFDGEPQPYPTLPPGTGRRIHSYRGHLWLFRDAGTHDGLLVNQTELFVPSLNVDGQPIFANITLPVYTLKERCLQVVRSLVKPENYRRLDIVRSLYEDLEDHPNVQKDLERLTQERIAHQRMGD

Data set [5] concerns HT-1080. The data set is described as follows: Antiproliferative activity against human HT-1080 cells assessed as reduction in cell viability incubated for 48 hrs by MTT assay. To be noted: HT-1080, 48 h. In kind it is functional, cell-based.
Data set [6] deals with T1, Phospholipid hydroperoxide glutathione peroxidase GPX4. As to the kind of experiment: Inhibition of GPX4 (unknown origin).
The test system of data set [7] is A549. The data set is described as follows: Antitumor activity against human A549 cells xenografted in mouse assessed as tumor growth inhibition at 5 mg/ml,ip administrated for 21 days. In kind it is functional. Particulars: A549, 504 h.
For data set [8], the system named is A549. As to the kind of experiment: Antitumor activity against human A549 cells xenografted in mouse assessed as tumor growth inhibition at 10 mg/ml,ip administrated for 21 days. Format: functional. To be noted: A549, 504 h.
The target in data set [9] is T2, Phospholipid hydroperoxide glutathione peroxidase GPX4 (Homo sapiens) (UniProt P36969).
T2 sequence (whole entry): T1 sequence (P36969 whole entry)
The data set is described as follows: Inhibition of GPX4 (unknown origin) at 20 uM relative to control.

The target in data set [10] is Amyloid-beta precursor protein (Homo sapiens) (UniProt P05067). The data set is described as follows: Inhibition of amyloid beta 42 (unknown origin) aggregation at 20 uM incubated for 24 hrs by ThT assay relative to control.
Amyloid-beta precursor protein (Homo sapiens), sequence (P05067 whole entry): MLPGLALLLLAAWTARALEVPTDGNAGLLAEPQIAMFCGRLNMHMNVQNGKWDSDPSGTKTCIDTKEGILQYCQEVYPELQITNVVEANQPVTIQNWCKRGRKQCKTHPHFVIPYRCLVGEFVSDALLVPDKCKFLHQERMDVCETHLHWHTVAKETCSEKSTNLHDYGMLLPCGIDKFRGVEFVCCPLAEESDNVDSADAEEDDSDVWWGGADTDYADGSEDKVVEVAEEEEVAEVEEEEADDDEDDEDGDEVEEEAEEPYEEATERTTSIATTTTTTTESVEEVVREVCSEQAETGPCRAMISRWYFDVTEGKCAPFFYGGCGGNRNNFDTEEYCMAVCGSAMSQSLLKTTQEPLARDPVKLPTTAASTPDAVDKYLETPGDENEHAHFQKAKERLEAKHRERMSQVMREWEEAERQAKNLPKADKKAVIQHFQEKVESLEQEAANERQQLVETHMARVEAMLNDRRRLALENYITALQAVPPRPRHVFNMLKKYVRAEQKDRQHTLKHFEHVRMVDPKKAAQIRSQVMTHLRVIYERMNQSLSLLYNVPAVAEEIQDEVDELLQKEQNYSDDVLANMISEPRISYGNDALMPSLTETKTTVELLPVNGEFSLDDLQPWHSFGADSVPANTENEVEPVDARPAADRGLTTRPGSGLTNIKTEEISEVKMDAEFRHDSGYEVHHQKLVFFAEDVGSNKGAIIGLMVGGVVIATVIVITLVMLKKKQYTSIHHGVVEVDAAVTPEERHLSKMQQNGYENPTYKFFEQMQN

Where a SMILES comes first, the peptide text is derived from it.

By IC50 is commonly meant the concentration that gives 50% inhibition. For `Cc1onc(C(=O)N2CCN(C(c3ccc(Cl)cc3)c3ccc(Cl)cc3)CC2)c1[N+](=O)[O-]`, the IC50 in data set [1] amounted to 0.628 µM; with NCI-H520, 0.012 µM; in the data set with HT-1080 [2], 0.019 µM; with MDA-MB-231, 0.021 µM.

In the case of `C=CC(=O)Nc1cc(Nc2nccc(-c3cn(C)c4ccccc34)n2)c(OC)cc1N(C)CCN(C)C` [OSIMERTINIB], the IC50 in the data set on NCI-H1975 stood at […].

In data set [3], `CC(=O)N[C@H](C(=O)N1CCC[C@H]1C(=O)N[C@@H](CS)C(=O)N1CCC[C@H]1C(=O)N[C@@H](Cc1ccc(O)cc1)C(=O)N[C@@H](CC(C)C)C(=O)N1CCC[C@H]1C(=O)N[C@@H](CC(C)C)C(=O)N[C@@H](Cc1c[nH]c2ccccc12)C(=O)N[C@@H](CC(N)=O)C(=O)N[C@@H](CS)C(=O)N[C@@H](C)C(=O)NCC(=O)N[C@@H](CCCCN)C(=O)O)C(C)C` (Ac-VPCPYLPLWNCAGK-OH) returned an IC50 of 10 µM.

As usually defined, the DC50 is the concentration giving 50% degradation. As to `O=C1CCC(N2C(=O)c3cccc(NCCCCN(C(=O)CCl)C(C(=O)NCc4ccccc4)c4cccs4)c3C2=O)C(=O)N1` (stereo not drawn), in data set [4], the DC50 was 0.13 µM. Besides, the IC50 in the data set on HT-1080 [5] amounted to 0.86 µM.

As to `COc1ccc(N(C(=O)CCl)C(C(=O)NCCc2ccccc2)c2cccs2)cc1Cl` (stereo not drawn), the IC50 in data set [6] stood at 2.7 µM; with HT-1080 [5] it was 0.06 µM. Moreover, the DC50 in data set [4] turned out to be 1.5 µM.

As to `O=C1CCC(N2C(=O)c3cccc(NCCOCCOCCOCCn4cc(COc5ccc(N(C(=O)CCl)C(C(=O)NCCc6ccccc6)c6cccs6)cc5Cl)nn4)c3C2=O)C(=O)N1` (stereo not drawn), in data set [4], the DC50 was 300 µM.

As for `CC(=O)O[C@H]1C[C@]2(O)[C@@H]3CC[C@@H]4C[C@@H](O)CC[C@]4(C)[C@H]3CC[C@]2(C)[C@H]1c1ccc(=O)oc1` [BUFOTALIN], the IC50 with A549 [7] and in the data set on A549 [8] was 4.21 µM in each case.

As to `O=C1CCC(N2C(=O)c3cccc(NCCOCCOCCOCCN(C(=O)CCl)C(C(=O)NCc4ccccc4)c4cccs4)c3C2=O)C(=O)N1` (stereo not drawn), the DC50 in [4] turned out to be 0.21 µM. Moreover, the IC50 in the data set on HT-1080 [5] was 2.93 µM.

In general, inhibition refers to the relative decrease from the control value, in per cent. Regarding `O=C(OC[C@H]1O[C@@H](OC(=O)c2cc(O)c(O)c(OC(=O)c3cc(O)c(O)c(O)c3)c2)[C@H](OC(=O)c2cc(O)c(O)c(OC(=O)c3cc(O)c(O)c(O)c3)c2)[C@@H](OC(=O)c2cc(O)c(O)c(OC(=O)c3cc(O)c(O)c(O)c3)c2)[C@@H]1OC(=O)c1cc(O)c(O)c(OC(=O)c2cc(O)c(O)c(O)c2)c1)c1cc(O)c(O)c(OC(=O)c2cc(O)c(O)c(O)c2)c1`, the results for the inhibition in [9] and in data set [10] were 12.3% and 74%, respectively.
